From publication PMC8539346, “Synthesis and Evaluation of a Dimeric RGD Peptide as a Preliminary Study for Radiotheranostics with Radiohalogens” (Molecules, 2021)
Like-named read-outs stand apart in the source and are kept apart here. One block for each compound: values may come before it.

Tests used:
αvβ3 integrin [1] = target: T1, αvβ3 integrin (Homo sapiens, UniProt P05106+P06756); assay: αvβ3 integrin competitive binding assay with U-87 MG cells, radioligand [^125I]c[RGDy(3-I)V]; conditions: competitive inhibition of [^125I]c[RGDy(3-I)V] binding, mean ± SD for three independent experiments
T1 construct: host or cells: U-87 MG glioblastoma cells
Description: The affinity of 6 and E[c(RGDfK)]2, a dimer RGD peptide without iodine, for αvβ3 integrin was determined via a competitive binding assay with U-87 MG cells. Binding of the radioligand [^125I]c[RGDy(3-I)V] to αvβ3 integrin was inhibited by 6 and E[c(RGDfK)]2 in a concentration-dependent manner.
Binding affinities of synthesized peptides E[c(RGDfK)]2 and 6 for αvβ3 integrin were evaluated by competitive inhibition between the peptides and [^125I]c[RGDy(3-I)V], which was prepared by Fmoc solid-phase synthesis and following ^125I-labeling with chloramine-T method, to αvβ3 integrin according to a previously reported procedure. The peptides’ half maximal inhibitory concentration (IC50) values were calculated by curve fitting with nonlinear regression using GraphPad Prism 8.4.3 (GraphPad Software Inc., San Diego, CA, USA). Each data point is the average of four determinations, and IC50 values were expressed as mean ± standard deviation (SD) from three independent experiments.
Figure 2 αvβ3 Integrin binding assay. Representative displacement curves of the competitive binding of [^125I]c[RGDy(3-I)V] to αvβ3 integrin on U-87 MG cells with E[c(RGDfK)]2 and 6. Error bars represent SD.

[2] = type: physicochemical
Description: (§1) An experimental Log p value of [^125I]6 was −2.33 ± 0.04. The value was higher than that of the monomeric radioiodine-labeled RGD peptide [^125I]c[RGDf(4-I)K] (−3.04 ± 0.46) from our previous study.
The partition coefficient of [^125I]6 was measured as described previously. The radioactivity in each phase was measured with an auto-well gamma counter. The partition coefficient was determined by calculating the ratio of 1-octanol to the buffer and was expressed as a common logarithm (log P).

[3] = In vitro stability in PBS(−); type: physicochemical; conditions: PBS(−) pH 7.4, 37 °C, 24 h, 37 kBq tracer in 100 µL, RP-HPLC; mean ± SD for three samples
Description: An in vitro stability experiment of [^125I]6 in PBS(−) (pH 7.4) solution was performed. After incubation at 37 °C for 24 h, 90.8 ± 0.7% (mean ± SD for three samples) of its radioactivity remained intact.
To evaluate the stability of [^125I]6 in PBS(−), 10 µL of each tracer (37 kBq) was added to 90 µL of PBS(−) (pH 7.4), and the solutions were incubated at 37 °C for 24 h. After incubation, the samples were drawn, and the radioactivity was analyzed by RP-HPLC.

[4] = test system: U-87 MG tumor bearing mice; conditions: mouse
Description: A comparison of the biodistribution experiments in U-87 MG tumor mice between [^125I]6 and [^125I]c[RGDf(4-I)K] is shown in Figure 3 and Table S1. [^125I]6 was highly accumulated in the tumor based on the results of the in vitro assay. […] (2.93 ± 0.08% ID/g). The accumulation of [^125I]6 in the liver and intestines also tended to be higher than that of [^125I]c[RGDf(4-I)K]. Meanwhile, it is known that the radioactive accumulation in the thyroid gland and stomach is an index of deiodination of radioiodine labeled probes.
Experiments with animals were conducted in strict accordance with the Guidelines for the Care and Use of Laboratory Animals of Kanazawa University. The experimental protocols were approved by the Committee on Animal Experimentation of Kanazawa University. The animals were housed with free access to food and water at 23 °C with a 12 h alternating light/dark schedule. We used a U-87 MG cell line because it was reported that the U-87 MG highly expresses αvβ3 integrin [26]. […] The radioactivity counts of ^125I was determined with an auto-well gamma counter (ARC-7010, Hitachi, Ltd., Tokyo, Japan) and corrected for background radiation and physical decay during counting. […]
Table S1. Biodistribution of radioactivity after intravenous injection of […]
Expressed as % injected dose per gram. […]
‡ Expressed as % injected dose.
Significance was determined by paired Student’s t test. […]

αvβ3 integrin [5] = target: T1, αvβ3 integrin; conditions: monomer RGD peptide; cited from earlier work
Description: The binding affinity of 6 for αvβ3 integrin (IC50: 1.2 ± 0.5 nM) was higher than that of c[RGDf(4-I)K] […] It was reported that IC50 values of dimeric RGD peptides in the αvβ3 integrin competitive binding assay were an order lower than those of original monomeric RGD peptides. Thus, the IC50 value of dimerizing peptide 6 was consistent with those described in previous studies.

[6] = cited from earlier work
From the text: as §1

IC50 (αvβ3 integrin [1]): 1.2 ± 0.5 nM
Compound: N=C(N)NCCC[C@@H]1NC(=O)[C@H](CCCCNC(=O)CC[C@H](N)C(=O)NCCCC[C@@H]2NC(=O)[C@@H](Cc3ccc(I)cc3)NC(=O)[C@H](CC(=O)O)NC(=O)CNC(=O)[C@H](CCCNC(=N)N)NC2=O)NC(=O)[C@@H](Cc2ccccc2)NC(=O)[C@H](CC(=O)O)NC(=O)CNC1=O [Compound 6, E[c(RGDfK)]{c[RGDf(4-I)K]}]

Log p (partition coefficient) [2]: −2.33 ± 0.04
radioactivity remained intact [3]: 90.8 ± 0.7%
in vivo deiodination (radioactivity in neck containing thyroid glands and stomach) [4]: hardly occurred
Compound: E[c(RGDfK)]{[^125I]c[RGDf(4-I)K]}2 [[^125I]6]

Compound: c[RGDf(4-I)K]
IC50 (αvβ3 integrin [5]): 23.2 ± 17.2 nM

Compound: [^125I]c[RGDf(4-I)K]
Log p (partition coefficient) [6]: −3.04 ± 0.46
